Experimental data reported in PMC8464905, “Novel c-Jun N-Terminal Kinase (JNK) Inhibitors with an 11H-Indeno[1,2-b]quinoxalin-11-one Scaffold” (Molecules, 2021).
Like-named read-outs stand apart in the source and are kept apart here.

Assays:
JNK2 [1] = biological target: T1, JNK2 (Homo sapiens, UniProt P45984); conditions: previously identified inhibitors; ref [35],[36]; cited from earlier work
T1 construct: purchased Eurofins Pharma Discovery (KINOMEscan)

JNK1 [2] = biological target: T2, JNK1 (Homo sapiens, UniProt P45983); conditions: previously identified inhibitors; ref [35],[36]; cited from earlier work
T2 construct: purchased Eurofins Pharma Discovery (KINOMEscan)
T2 sequence (P45983 whole entry): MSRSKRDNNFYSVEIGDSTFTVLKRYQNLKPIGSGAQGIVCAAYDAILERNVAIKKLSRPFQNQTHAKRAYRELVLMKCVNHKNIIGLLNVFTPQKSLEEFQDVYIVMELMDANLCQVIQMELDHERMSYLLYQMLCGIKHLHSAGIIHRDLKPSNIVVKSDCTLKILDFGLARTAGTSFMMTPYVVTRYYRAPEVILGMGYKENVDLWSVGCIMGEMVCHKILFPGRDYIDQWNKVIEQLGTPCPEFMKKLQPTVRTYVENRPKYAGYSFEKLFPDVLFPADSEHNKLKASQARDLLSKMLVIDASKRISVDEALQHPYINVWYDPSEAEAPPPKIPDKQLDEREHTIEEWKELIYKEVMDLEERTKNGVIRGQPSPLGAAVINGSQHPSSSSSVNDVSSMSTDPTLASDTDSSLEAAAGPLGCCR

JNK3 [3] = biological target: T3, JNK3 (Homo sapiens, UniProt P53779); conditions: previously identified inhibitors; ref [35],[36]; cited from earlier work
T3 construct: purchased Eurofins Pharma Discovery (KINOMEscan)
T3 sequence (P53779 whole entry): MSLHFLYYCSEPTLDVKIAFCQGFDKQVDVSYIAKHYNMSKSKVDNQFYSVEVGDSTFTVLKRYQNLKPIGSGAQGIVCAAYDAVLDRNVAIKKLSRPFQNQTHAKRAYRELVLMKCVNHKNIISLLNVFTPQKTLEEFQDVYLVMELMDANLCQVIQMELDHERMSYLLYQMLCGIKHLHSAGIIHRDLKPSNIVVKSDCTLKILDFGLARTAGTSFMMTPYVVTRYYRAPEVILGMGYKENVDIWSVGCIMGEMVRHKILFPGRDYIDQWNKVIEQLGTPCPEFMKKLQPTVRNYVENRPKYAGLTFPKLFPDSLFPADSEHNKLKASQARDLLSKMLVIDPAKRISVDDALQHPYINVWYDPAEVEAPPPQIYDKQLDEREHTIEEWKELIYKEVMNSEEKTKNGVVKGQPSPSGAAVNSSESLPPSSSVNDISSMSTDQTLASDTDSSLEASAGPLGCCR

JNK1-3 [4] = test system: JNK1-3; design: method as in PMID 27027242, PMID 11717429, PMID 16759099, PMID 21666839; conditions: Figure 1; ref [25],[32],[33],[34]; cited from earlier work
IL-6 [5] = test system: IL-6; design: method as in PMID 22434859; conditions: LPS-induced; ref [35]; read-out: MonoMac-6 Cell IL-6 IC50; cited from earlier work
[6] = CellTiter-Glo cytotoxicity in THP-1Blue cells; format: cell-based, human; conditions: human, THP-1Blue cells; 24-h incubation, up to 50 μM; read-out: THP-1Blue Cell Cytotoxicity IC50
Description: (§1) All cells were cultured at 37 °C in a humidified atmosphere containing 5% CO2. THP1-Blue cells obtained from InvivoGen (San Diego, CA, USA) were cultured in RPMI 1640 medium (Mediatech Inc., Herndon, VA, USA) supplemented with 10% (v/v) fetal bovine serum (FBS), 100 μg/mL streptomycin, 100 U/mL penicillin, 100 μg/mL phleomycin (Zeocin), and 10 μg/mL blasticidin S. Human monocyte-macrophage MonoMac-6 cells (Deutsche Sammlung von Mikroorganismen und Zellkulturen GmbH, Braunschweig, Germany) were grown in RPMI 1640 medium supplemented with 10% (v/v) FBS, 10 μg/mL bovine insulin, 100 μg/mL streptomycin, and 100 U/mL penicillin.
(§2) Cytotoxicity was analyzed with a CellTiter-Glo Luminescent Cell Viability Assay Kit from Promega (Madison, WI, USA), according to the manufacturer’s protocol. Cells were treated with compounds under investigation and incubated for 24 h. After treatment, the cells were equilibrated to room temperature for 30 min, substrate was added, and the samples were analyzed with a Fluoroscan Ascent FL (Thermo Fisher Scientific, Waltham, MA, USA). The IC50 values were calculated by plotting percentage inhibition against the logarithm of inhibitor concentration (at least five points).

THP-1Blue cells = experiment: CellTiter-Glo cytotoxicity in THP-1Blue cells; format: cell-based, human; conditions: 24-h incubation, up to 50 μM
Description: as §1, §2

[7] = CellTiter-Glo cytotoxicity in MonoMac-6 cells; format: cell-based, human; conditions: human, MonoMac-6 cells; 24-h incubation, up to 50 μM; read-out: MonoMac-6 Cell Cytotoxicity IC50
Description: as §1, §2

MonoMac-6 cells = experiment: CellTiter-Glo cytotoxicity in MonoMac-6 cells; format: cell-based, human; conditions: 24-h incubation, up to 50 μM
Description: as §1, §2

JNK2 [8] = biological target: T1, JNK2; experiment: KINOMEscan Kd determination, JNK2; conditions: duplicate, mean, N.B. = no binding at < 30 μM
Description: (§3) Selected compounds were submitted for dissociation constant (Kd) determination using KINOMEscan (Eurofins Pharma Discovery, San Diego, CA, USA), as described previously. […] Primary screening at fixed concentrations of compounds was performed in duplicate.

JNK3 [9] = biological target: T3, JNK3; experiment: KINOMEscan Kd determination, JNK3; conditions: duplicate, mean, N.B. = no binding at < 30 μM
Description: as §3

JNK1-3 [10] = experiment: KINOMEscan binding, statements for all three JNK isoforms; conditions: summary of Table 3
Description: as §3

JNK1 [11] = biological target: T2, JNK1; experiment: KINOMEscan Kd determination, JNK1; conditions: duplicate, mean, N.B. = no binding at < 30 μM
Description: as §3

NF-κB/AP-1 = experiment: LPS-induced NF-κB/AP-1 alkaline phosphatase reporter assay in THP1-Blue cells; format: cell-based; conditions: Homo sapiens; 30 min pretreatment, 250 ng/mL LPS for 24 h; read-out: THP-1Blue Cell NF-κB/AP-1 IC50
Description: as §1
Activation of AP-1/NF-κB was measured using an alkaline phosphatase reporter gene assay in THP1-Blue cells. Human monocytic THP-1 Blue cells are stably transfected with a secreted embryonic alkaline phosphatase gene that is under the control of a promoter inducible by NF-κB/AP-1. THP1-Blue cells (2 × 10^5 cells/well) were pretreated with test compound or DMSO for 30 min, followed by addition of 250 ng/mL lipopolysaccharide (LPS) for 24 h, and alkaline phosphatase activity was measured in cell supernatants using QUANTI-Blue mix (InvivoGen) as absorbance at 655 nm and compared with positive control samples (LPS). For selected compounds, the concentrations of inhibitor that caused 50% inhibition of the NF-κB reporter activity (IC50) were calculated.

JNK3 [12] = biological target: T3, JNK3; design: method as in PMID 27027242, PMID 11717429, PMID 16759099, PMID 21666839; conditions: Figure 1; ref [25],[32],[33],[34]; cited from earlier work
JNK1 [13] = biological target: T2, JNK1; design: method as in PMID 27027242, PMID 11717429, PMID 16759099, PMID 21666839; conditions: Figure 1; ref [25],[32],[33],[34]; cited from earlier work
IL-6 [14] = experiment: LPS-induced IL-6 production in MonoMac-6 cells (ELISA); format: cell-based; conditions: Homo sapiens, MONO-MAC-6; 30 min pretreatment, 250 ng/mL LPS for 24 h; read-out: MonoMac-6 Cell IL-6 IC50
Description: as §1
A human IL-6 ELISA kit (BD Biosciences, San Jose, CA, USA) was measure IL-6 production. MonoMac-6 cells were plated in 96-well plates at a density of 2 × 10^5 cells/well in culture medium supplemented with 3% (v/v) endotoxin-free FBS. The cells were pretreated with test compound or DMSO for 30 min, followed by addition of 250 ng/mL LPS for 24 h. IC50 values for IL-6 production were calculated by plotting percentage inhibition against the logarithm of inhibitor concentration (at least five points).

phospho-c-Jun (Ser63) = experiment: LPS-induced c-Jun (Ser63) phosphorylation in MonoMac-6 cells (Western blotting); format: cell-based, human; conditions: 30 min pretreatment, LPS 250 ng/mL 30 min
Description: MonoMac-6 monocytic cells were pretreated with different concentrations of the compounds under investigation for 30 min and treated with LPS (250 ng/mL) or vehicle for another 30 min. Cells were washed twice with Hanks’ balanced salt solution, and cell lysates were prepared using lysis buffer from the JNK kinase assay kit (Cell Signaling Technology, Danvers, MA). Cell lysates (from 5 × 10^6 cells) were separated on ExpressPlus 4–20% PAGE Gels (GenScript, Piscataway, NJ, USA) using TRIS-MOPS running buffer (GenScript) and transferred to nitrocellulose membranes. The blots were probed with antibodies against c-Jun, phospho-c-Jun (Ser63), and total c-Jun (Cell Signaling Technology, Danvers, MA, USA), followed by horseradish peroxidase-conjugated secondary antibody (Cell Signaling Technology). The blots were developed using SuperSignal West Femto chemiluminescent substrate (Thermo Fisher Scientific) and visualized with a FluorChem FC2 imaging system (Alpha Innotech Corporation, San Leandro, CA, USA). Quantitation of the chemiluminescent signal was performed using AlphaView software (ver. 3.0; Alpha Innotech).

Water solubility = format: physicochemical

T1 sequence (P45984 whole entry): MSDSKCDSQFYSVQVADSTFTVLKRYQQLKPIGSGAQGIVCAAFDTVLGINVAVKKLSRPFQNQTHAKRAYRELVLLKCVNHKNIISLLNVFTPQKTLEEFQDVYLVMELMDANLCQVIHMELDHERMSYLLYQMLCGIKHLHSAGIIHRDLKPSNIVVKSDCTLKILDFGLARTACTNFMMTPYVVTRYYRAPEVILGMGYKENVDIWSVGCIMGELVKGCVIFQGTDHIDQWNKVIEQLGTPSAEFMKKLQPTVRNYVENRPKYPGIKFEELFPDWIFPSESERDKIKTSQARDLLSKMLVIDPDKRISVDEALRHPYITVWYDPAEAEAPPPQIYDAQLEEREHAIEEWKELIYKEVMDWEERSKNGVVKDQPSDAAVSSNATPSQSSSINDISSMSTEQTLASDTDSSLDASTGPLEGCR

| Compound | Kd (JNK2 [1]) | Kd (JNK1 [2]) | Kd (JNK3 [3]) | IC50 at 24 h [6] | IC50 at 24 h [7] | Kd (JNK2 [8]) | Kd (JNK3 [9]) | Binding affinity (Kd) for all three JNK isoforms, in words (JNK1-3 [10]) | Kd (JNK1 [11]) | melting point | IC50 (NF-κB/AP-1) | further results |
| --- | --- | --- | --- | --- | --- | --- | --- | --- | --- | --- | --- | --- |
| O/N=C1/c2ccccc2-c2nc3ccc(Cl)cc3nc21 [C] | 21500 nM | 1100 nM | 700 nM |  |  |  |  |  |  |  |  |  |
| SP600125 |  |  |  |  |  |  |  |  |  |  |  | IC50 (JNK1-3 [4]): 40 to 90 nM |
| ON=C1c2ccccc2-c2nc3ccccc3nc21 [IQ-1, 11H-indeno[1,2-b]quinoxalin-11-one oxime] |  |  |  |  |  |  |  |  |  |  |  | IC50 (IL-6 [5]): 3400 ± 800 nM |
| Cc1cc(Br)cc2nc3c(nc12)-c1ccccc1C3=NO [Compound 4c, 6-Methyl-8-bromo-11H-indeno[1,2-b]quinoxalin-11-one Oxime] |  |  |  | 37500 ± 1700 nM | 14600 ± 1200 nM | > 30000 nM | > 30000 nM | inactive | > 30000 nM | 255 to 256 °C |  | THP-1Blue Cell Cytotoxicity IC50 (THP-1Blue cells): exhibited cytotoxicity; MonoMac-6 Cell Cytotoxicity IC50 (MonoMac-6 cells): cytotoxic |
| Cc1ccc2nc3c(nc2c1)-c1ccccc1/C3=N/O [D] | 800 nM | 700 nM | 300 nM |  |  |  |  |  |  |  |  |  |
| ON=C1c2ccccc2-c2nc3c(Br)cc(C(F)(F)F)cc3nc21 [Compound 4h, 6-Bromo-8-(trifluoromethyl)-11H-indeno[1,2-b]quinoxalin-11-one Oxime] |  |  |  | > 50000 nM | 29000 ± 2500 nM | > 30000 nM | > 30000 nM | inactive | > 30000 nM | 236 to 237 °C | 2500 ± 600 nM | MonoMac-6 Cell Cytotoxicity IC50 (MonoMac-6 cells): cytotoxic |
| Cc1ccc(-c2ncn(-c3ccc(Nc4nccc(-c5cccc(N6CCOCC6)c5)n4)cc3)n2)cn1 [SR-3306] |  |  |  |  |  |  |  |  |  |  |  | IC50 (JNK3 [12]): 67 nM; IC50 (JNK1 [13]): 159 nM |
| ON=C1c2ccccc2-c2nc3c(CN4CCOCC4)cccc3nc21 [Compound 4m, 6-(Morpholinomethyl)-11H-indeno[1,2-b]quinoxalin-11-one Oxime] |  |  |  | > 50000 nM | > 50000 nM | 880 ± 100 nM | 910 ± 300 nM | relatively high binding affinity | 1100 ± 100 nM | 210 to 211 °C | 100 ± 50 nM | IC50 (IL-6 [14]): 800 ± 100 nM; Effect on LPS-induced c-Jun (Ser63) phosphorylation (phospho-c-Jun (Ser63)): inhibited c-Jun phosphorylation; Water solubility (Water solubility): high water solubility |
| ON=C1c2ccccc2-c2nc3cc(F)c(F)cc3nc21 [Compound 4f, 7,8-Difluoro-11H-indeno[1,2-b]quinoxalin-11-one Oxime] |  |  |  | > 50000 nM | > 50000 nM | > 30000 nM | 520 ± 300 nM |  | 170 ± 40 nM | 250 to 251 °C | 1100 ± 400 nM | JNK2 Kd (JNK2 [8]): did not bind; IC50 (IL-6 [14]): 14000 ± 2800 nM; Effect on LPS-induced c-Jun (Ser63) phosphorylation (phospho-c-Jun (Ser63)): inhibited c-Jun phosphorylation |
| O=[N+]([O-])c1ccc2nc3c(nc2c1)-c1ccccc1/C3=N/O [B] | 12000 nM | 6000 nM | 4300 nM |  |  |  |  |  |  |  |  |  |
